According to patent US20080051466A1, “Isoalpha acid based protein kinase modulation cancer treatment” (Metaproteomics, LLC, priority 2006, published 2008):

How the values were obtained:
Assay in all cases: KinaseProfiler Assay
Assay type in all cases: biochemical
[1] = target: CaMKI (Homo sapiens, UniProt Q14012); details: read-out: CaMKI, % of Control
[2] = target: T1, DRAK1 (Homo sapiens, UniProt Q9UEE5); details: read-out: DRAK1, % of Control
T1 sequence (Q9UEE5 1-414): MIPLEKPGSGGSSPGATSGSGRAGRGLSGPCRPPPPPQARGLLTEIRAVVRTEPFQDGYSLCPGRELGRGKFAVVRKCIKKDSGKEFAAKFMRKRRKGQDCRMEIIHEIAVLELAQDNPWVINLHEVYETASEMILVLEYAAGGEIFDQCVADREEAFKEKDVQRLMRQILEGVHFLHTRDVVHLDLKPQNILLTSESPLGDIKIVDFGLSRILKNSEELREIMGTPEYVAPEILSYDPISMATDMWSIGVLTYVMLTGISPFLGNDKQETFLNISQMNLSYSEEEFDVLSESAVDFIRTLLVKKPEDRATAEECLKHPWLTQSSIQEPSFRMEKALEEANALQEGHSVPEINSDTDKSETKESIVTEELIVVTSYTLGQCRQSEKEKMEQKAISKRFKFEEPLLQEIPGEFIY

[3] = target: T2, TSSK2 (Homo sapiens, UniProt Q96PF2); details: read-out: TSSK2, % of Control
T2 sequence (Q96PF2 1-358): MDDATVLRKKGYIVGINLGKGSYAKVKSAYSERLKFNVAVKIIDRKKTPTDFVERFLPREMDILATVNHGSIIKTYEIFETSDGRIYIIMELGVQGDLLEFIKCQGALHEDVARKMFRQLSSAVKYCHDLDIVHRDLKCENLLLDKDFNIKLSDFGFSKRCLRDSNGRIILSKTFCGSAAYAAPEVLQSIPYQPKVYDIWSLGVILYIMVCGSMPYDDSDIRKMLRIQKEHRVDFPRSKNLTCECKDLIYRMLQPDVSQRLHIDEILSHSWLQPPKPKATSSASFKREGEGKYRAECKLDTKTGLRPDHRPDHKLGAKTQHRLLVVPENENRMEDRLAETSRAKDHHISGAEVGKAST

[4] = target: ALK4 (Homo sapiens, UniProt P36896); details: read-out: ALK4, % of Control
[5] = target: CDK5/p25 (Homo sapiens, UniProt Q00535); details: read-out: CDK5/p25, % of Control
[6] = target: Syk (Homo sapiens, UniProt P43405); details: read-out: Syk, % of Control
[7] = target: MAPKAP-K2 (Homo sapiens, UniProt P49137); details: read-out: MAPKAP-K2, % of Control
[8] = target: T3, EphA8 (Homo sapiens, UniProt P29322); details: read-out: EphA8, % of Control
T3 sequence (P29322 28-1005): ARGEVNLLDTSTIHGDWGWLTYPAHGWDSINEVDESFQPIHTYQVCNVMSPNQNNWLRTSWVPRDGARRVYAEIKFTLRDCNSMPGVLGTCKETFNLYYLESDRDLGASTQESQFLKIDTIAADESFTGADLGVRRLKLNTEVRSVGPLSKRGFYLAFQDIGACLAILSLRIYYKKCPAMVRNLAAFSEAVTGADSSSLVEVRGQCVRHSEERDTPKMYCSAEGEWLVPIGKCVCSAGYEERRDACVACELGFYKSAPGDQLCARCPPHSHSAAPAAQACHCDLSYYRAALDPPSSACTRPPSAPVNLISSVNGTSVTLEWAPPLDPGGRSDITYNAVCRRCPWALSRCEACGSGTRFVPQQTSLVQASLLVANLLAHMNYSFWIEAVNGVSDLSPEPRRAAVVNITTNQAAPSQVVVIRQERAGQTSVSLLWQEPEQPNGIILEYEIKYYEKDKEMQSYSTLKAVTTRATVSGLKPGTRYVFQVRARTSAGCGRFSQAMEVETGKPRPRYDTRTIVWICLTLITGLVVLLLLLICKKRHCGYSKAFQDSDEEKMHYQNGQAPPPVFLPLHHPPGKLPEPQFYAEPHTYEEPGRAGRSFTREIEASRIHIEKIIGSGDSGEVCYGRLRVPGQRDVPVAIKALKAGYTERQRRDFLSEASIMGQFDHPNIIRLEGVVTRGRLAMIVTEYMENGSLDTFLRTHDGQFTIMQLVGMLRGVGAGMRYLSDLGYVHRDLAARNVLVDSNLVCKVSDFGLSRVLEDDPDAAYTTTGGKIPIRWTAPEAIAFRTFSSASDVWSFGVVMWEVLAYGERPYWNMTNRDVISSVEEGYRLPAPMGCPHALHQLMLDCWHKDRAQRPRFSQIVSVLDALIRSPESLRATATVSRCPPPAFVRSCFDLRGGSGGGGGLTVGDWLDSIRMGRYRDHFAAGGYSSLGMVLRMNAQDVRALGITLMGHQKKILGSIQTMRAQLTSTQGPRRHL

[9] = target: DAPK1 (Homo sapiens, UniProt P53355); details: read-out: DAPK1, % of Control
[10] = target: Abl(T315I) (Homo sapiens, UniProt P00519, T315I); details: read-out: Abl(T315I), % of Control
[11] = target: CDK2/cyclinA (Homo sapiens, UniProt P24941); details: read-out: CDK2/cyclinA, % of Control

Sequence of MAPKAP-K2 (P49137 whole entry): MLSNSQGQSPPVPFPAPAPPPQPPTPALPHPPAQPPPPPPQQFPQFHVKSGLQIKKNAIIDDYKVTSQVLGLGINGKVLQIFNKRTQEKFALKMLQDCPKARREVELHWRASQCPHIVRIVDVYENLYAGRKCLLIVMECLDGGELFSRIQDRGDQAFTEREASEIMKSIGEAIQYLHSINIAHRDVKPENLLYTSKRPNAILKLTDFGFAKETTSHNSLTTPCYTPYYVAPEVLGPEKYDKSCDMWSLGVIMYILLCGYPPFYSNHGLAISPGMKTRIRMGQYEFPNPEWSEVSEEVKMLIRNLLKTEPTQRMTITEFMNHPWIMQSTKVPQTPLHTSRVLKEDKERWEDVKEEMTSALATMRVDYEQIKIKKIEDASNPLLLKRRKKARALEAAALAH
Sequence of CDK5/p25 (Q00535 whole entry): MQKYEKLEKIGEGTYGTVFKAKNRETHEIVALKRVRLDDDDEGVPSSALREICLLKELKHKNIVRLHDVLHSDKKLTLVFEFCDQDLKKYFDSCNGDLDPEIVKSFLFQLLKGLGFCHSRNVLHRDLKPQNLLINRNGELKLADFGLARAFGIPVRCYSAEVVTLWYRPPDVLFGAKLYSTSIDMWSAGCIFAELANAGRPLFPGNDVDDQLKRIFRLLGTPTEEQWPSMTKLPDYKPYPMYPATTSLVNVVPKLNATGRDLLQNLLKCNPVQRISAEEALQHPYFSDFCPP
Sequence of CDK5/p25 (Q15078 99-307 partner limits assumed): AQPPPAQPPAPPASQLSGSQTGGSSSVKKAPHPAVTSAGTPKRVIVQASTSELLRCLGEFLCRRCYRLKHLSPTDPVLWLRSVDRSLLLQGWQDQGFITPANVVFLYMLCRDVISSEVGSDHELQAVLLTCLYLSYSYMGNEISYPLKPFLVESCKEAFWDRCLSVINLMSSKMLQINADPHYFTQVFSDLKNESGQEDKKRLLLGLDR
Sequence of DAPK1 (P53355 whole entry): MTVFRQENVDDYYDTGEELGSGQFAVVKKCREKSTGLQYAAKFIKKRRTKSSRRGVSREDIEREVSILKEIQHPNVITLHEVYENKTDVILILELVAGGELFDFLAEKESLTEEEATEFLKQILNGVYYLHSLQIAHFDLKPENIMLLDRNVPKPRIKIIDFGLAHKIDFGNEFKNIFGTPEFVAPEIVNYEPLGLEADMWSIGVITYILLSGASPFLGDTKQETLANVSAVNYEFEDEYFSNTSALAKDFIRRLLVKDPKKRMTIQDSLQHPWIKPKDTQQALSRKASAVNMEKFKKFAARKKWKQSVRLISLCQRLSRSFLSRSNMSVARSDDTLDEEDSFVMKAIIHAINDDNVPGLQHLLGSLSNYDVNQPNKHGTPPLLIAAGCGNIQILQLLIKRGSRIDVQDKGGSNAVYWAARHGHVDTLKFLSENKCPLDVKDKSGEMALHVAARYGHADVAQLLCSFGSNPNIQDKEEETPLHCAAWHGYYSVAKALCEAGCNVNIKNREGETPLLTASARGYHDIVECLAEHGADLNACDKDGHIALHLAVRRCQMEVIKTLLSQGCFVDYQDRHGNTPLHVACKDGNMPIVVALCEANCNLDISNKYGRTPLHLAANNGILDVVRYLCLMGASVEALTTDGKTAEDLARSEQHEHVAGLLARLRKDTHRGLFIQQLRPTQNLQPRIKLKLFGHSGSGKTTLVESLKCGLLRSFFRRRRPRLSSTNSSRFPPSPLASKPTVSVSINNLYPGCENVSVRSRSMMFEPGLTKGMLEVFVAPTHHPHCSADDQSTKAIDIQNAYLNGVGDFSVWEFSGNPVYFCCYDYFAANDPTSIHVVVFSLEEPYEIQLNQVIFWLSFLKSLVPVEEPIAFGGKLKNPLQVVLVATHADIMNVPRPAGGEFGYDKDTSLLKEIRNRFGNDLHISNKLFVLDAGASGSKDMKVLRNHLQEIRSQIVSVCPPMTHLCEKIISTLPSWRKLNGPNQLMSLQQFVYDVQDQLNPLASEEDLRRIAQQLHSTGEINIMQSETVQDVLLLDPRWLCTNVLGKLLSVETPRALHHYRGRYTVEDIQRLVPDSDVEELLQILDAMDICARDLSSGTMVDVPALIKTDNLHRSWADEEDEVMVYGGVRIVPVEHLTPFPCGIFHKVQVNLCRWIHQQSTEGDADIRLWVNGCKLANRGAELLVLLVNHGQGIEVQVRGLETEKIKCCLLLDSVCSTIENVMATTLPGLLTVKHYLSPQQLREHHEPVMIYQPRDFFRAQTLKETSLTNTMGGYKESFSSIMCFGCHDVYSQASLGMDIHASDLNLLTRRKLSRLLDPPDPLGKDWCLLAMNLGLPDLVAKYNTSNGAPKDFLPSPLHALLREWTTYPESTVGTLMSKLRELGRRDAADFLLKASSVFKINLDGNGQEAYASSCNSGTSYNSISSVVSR
Sequence of ALK4 (P36896 24-505): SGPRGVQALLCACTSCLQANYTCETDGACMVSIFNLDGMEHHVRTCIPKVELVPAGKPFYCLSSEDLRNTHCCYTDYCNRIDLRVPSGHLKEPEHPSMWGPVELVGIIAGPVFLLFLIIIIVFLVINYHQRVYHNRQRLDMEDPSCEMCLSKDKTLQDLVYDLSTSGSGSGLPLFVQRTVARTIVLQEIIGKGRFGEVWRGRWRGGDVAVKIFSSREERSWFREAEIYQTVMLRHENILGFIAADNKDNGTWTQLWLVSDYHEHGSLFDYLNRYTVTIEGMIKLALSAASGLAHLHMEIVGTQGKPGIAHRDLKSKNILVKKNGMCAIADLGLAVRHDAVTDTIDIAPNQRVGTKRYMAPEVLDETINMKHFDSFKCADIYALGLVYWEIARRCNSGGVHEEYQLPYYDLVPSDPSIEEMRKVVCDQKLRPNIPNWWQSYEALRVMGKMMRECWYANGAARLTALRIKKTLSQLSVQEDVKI
Sequence of CaMKI (Q14012 whole entry): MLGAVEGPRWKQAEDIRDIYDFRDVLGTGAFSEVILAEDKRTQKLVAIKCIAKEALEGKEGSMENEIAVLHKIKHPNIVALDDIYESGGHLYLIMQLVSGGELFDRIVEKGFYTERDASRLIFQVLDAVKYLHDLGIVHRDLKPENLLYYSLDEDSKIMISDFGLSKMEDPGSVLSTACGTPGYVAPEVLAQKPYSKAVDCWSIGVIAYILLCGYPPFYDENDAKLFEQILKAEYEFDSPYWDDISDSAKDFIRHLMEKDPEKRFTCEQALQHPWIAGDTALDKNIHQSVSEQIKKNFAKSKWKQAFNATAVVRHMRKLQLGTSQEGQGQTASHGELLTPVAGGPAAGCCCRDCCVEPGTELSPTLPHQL

- remaining activity at 1 µg/mL ([1]; 1 ug/ml): 142%
- remaining activity at 25 µg/mL ([1]; 25 ug/ml): 3%
- remaining activity at 1 µg/mL ([2]; 1 ug/ml): 133%
- remaining activity at 25 µg/mL ([2]; 25 ug/ml): 19%
- remaining activity at 50 µg/mL ([2]; 50 ug/ml): -5%
- remaining activity at 1 µg/mL ([3]; 1 ug/ml): 102%
- remaining activity at 5 µg/mL ([3]; 5 ug/ml): 95%
- remaining activity at 25 µg/mL ([3]; 25 ug/ml): 61%
- remaining activity at 50 µg/mL ([3]; 50 ug/ml): 48%
- remaining activity at 1 µg/mL ([4]; 1 ug/ml): 116%
- remaining activity at 25 µg/mL ([4]; 25 ug/ml): 71%
- remaining activity at 25 µg/mL ([5]; 25 ug/ml): 24%
- remaining activity at 50 µg/mL ([5]; 50 ug/ml): 87%
- remaining activity at 1 µg/mL ([6]; 1 ug/ml): 95%
- remaining activity at 5 µg/mL ([6]; 5 ug/ml): 60%
- remaining activity at 25 µg/mL ([6]; 25 ug/ml): 32%
- remaining activity at 50 µg/mL ([6]; 50 ug/ml): 17%
- remaining activity at 1 µg/mL ([7]; 1 ug/ml): 99%
- remaining activity at 5 µg/mL ([7]; 5 ug/ml): 95%
- remaining activity at 25 µg/mL ([7]; 25 ug/ml): 6%
- remaining activity at 50 µg/mL ([7]; 50 ug/ml): 8%
- remaining activity at 1 µg/mL ([8]; 1 ug/ml): 103%
- remaining activity at 5 µg/mL ([8]; 5 ug/ml): 92%
- remaining activity at 25 µg/mL ([8]; 25 ug/ml): 29%
- remaining activity at 50 µg/mL ([8]; 50 ug/ml): 19%
- remaining activity at 5 µg/mL ([9]; 5 ug/ml): 85%
- remaining activity at 50 µg/mL ([9]; 50 ug/ml): 20%
- remaining activity at 1 µg/mL ([10]; 1 ug/ml): 126%
- remaining activity at 5 µg/mL ([10]; 5 ug/ml): 115%
- remaining activity at 25 µg/mL ([10]; 25 ug/ml): 16%
- remaining activity at 1 µg/mL ([11]; 1 ug/ml): 107%
- remaining activity at 5 µg/mL ([11]; 5 ug/ml): 96%
- remaining activity at 25 µg/mL ([11]; 25 ug/ml): 57%
- remaining activity at 50 µg/mL ([11]; 50 ug/ml): 6%
SMILES: COc1cc(O)c(CC=C(C)C)c(O)c1C(=O)/C=C/c1ccc(O)cc1 [Xanthohumol, xanthohumol]
